Data: patent US10351915B2 (Berg LLC, priority 2009, dated 2019)

Columns and labels:
[1] = system: Isocitrate Dehydrogenase-1 (IDH-1); assay: Western blot, IDH1 levels; format: cell-based, human
Experimental: The whole cell pellets were resuspended one at a time in 1 mL of C7 buffer and transferred to labeled 15 mL tubes. The samples were then sonicated in the cold room on ice using 6 sonic pulses with the setting at #14. The samples were spun for a short time to 2500 g after sonication and the samples transferred to 2 ml tubes. The pH was verified of each sample (pH should be 9.0) using the foam remaining in the […] sample tubes.
Alkylation and reduction of samples was performed for each sample by adding 10 ul of 1M acrylamide, 25 ul of tributylphoshene and incubation for 90 mins with intermittent mixing. After incubation, 10 ul of 1M DTT was added and the tubes were spun at 20,000 g at 20 deg C. for 10 minutes and transferred the supernatant to labeled Amicon Ultra centrifugal filter units with a 10 k cut off (Millipore catalog # UFC 801024). The samples were spun for 15 minutes at 2500 g in 2 intervals. The conductivity was measured for Chaps alone as well as the samples using a conductivity meter. If the conductivity of samples is high, then 1 ml of chaps was added for buffer exchange and spun again at 2500 g until the volume was down to 250 ul. When the conductivity was 200 or less the samples were spun in 5 min intervals at 2500 g until the volume of the supernatant was between 150-100 ul. The sample supernatants were transferred to eppendorf tubes and Bradford assay was performed using BSA as standard.
The samples were processed as per standard protocols as described above and the amount of protein in each of the samples was determined by Bradford assay. Sample volumes equivalent to 10 ug of protein were prepared as shown below with Lamelli Loading dye (LDS) and MilliQ water were run on a 4-12% Bis-Tris Novex NuPAGE gel (Invitrogen, cat # NP0323Box)
The gels were run for 50 minutes using 1×MOPS buffer using a NOVEX Xcell Surelock system at 200 V. The gels were then transferred for 1 hour using a NOVEX Xcell Surelock wet transfer protocol at 30 V. The blots were stained with Simply Blue Safestain from Invitrogen (LC6065).
After transfer each of the blots was placed in between 2 Whatman Filter papers and dried for 15-20 minutes. After drying the blots were labeled with the date, the type of samples and either blot 1 or blot 2 using a HB pencil. The molecular weight markers were outlined with the pencil and with single lines for the blue and a doublet for the colored markers. The blots were activated with methanol for 5 seconds, washed with water for 5 minutes, and TBST for 15 minutes. The blots were blocked for 1 hour with 5% blocking reagent in TBS-T at room temperature and then washed 3 times with TBS-T (1×-15′; 2×5′ each). […]

[2] = system: MCF-7 breast cancer cells; assay: Oxygen consumption rate (OCR), SeaHorse XF analyzer; format: cell-based; details: absence and presence of stressors
Source text: (§1) (SeaHorse Biosciences Inc, North Billerica, Mass.).
(§2) In contrast, cancer cells (e.g., MCF-7, PaCa-2) are inherently primed to culture at higher levels of glucose compared to normal cells due to their glycolytic phenotype for maintenance in culture.

[3] = system: PaCa-2 pancreatic cancer cells; assay: as above; format: cell-based; details: absence and presence of stressors
Source text: as §1, §2

skin cancer cells = skin cancer cells vs normal cells; cited from earlier work
SKBr3 = assay: Nexin assay for apoptosis (flow cytometry); format: cell-based, human; details: 50 μM or 100 μM Q10, 24 hours
Source text: The 7AAD dye will enter into cells with permeabilized cell membranes; primarily those cells that are in late apoptosis. Annexin-V-PE is a dye that binds to Phosphotidyl serine, which is exposed on the outer surface of the plasma membrane in early apoptotic cells. The Nexin reagent thus can be used to differentiate between different populations of apoptotic cells in a flow cytometer.

COC1=C(OC)C(=O)C(C/C=C(\C)CC/C=C(\C)CC/C=C(\C)CC/C=C(\C)CC/C=C(\C)CC/C=C(\C)CC/C=C(\C)CC/C=C(\C)CC/C=C(\C)CCC=C(C)C)=C(C)C1=O [Q10, Coenzyme Q10]
IDH1, Average Normalized Intensity ([1]; HDFa cells, HDF24-100 (HDF, Media = 346)): 600
expression pattern of IDH1 ([1]; HDFa, nFIB and HASMC): did not demonstrate significant changes
expression of IDH1 ([1]; SCC25 cell lines): moderate increase in expression
expression of IDH1 ([1]; cancer cell lines MCF-7, SKMEL28, HepG2 and PaCa-2): increased expression
OCR values [2]: consistent reduction in OCR values
OCR values [3]: consistent reduction in OCR values
rate of apoptosis (skin cancer cells): increase the rate of apoptosis in a culture of skin cancer cells but not normal cells
early and late apoptosis (SKBr3): did not show any significant increases of early and late apoptosis
